The values below come from DBAASP.

Test systems include Shigella dysenteriae; Bacillus subtilis 168; Escherichia coli B; Pseudomonas aeruginosa; Staphylococcus aureus; Escherichia coli; Bacillus cereus; Escherichia coli UB1005; Escherichia coli JW0013.
What all share (assay): ≥ marks a high value that may be exact or a test limit, other limits are often not marked, values filed in µg/mL are converted to µM
For experiment [1], the system named is Candida albicans ATCC 2002.
Experiment [2] has as its system Escherichia coli ATCC 25922.
Experiment [3] deals with Staphylococcus aureus ATCC 2592.
The test system of experiment [4] is Bacillus subtilis ATCC 6633.
Experiment [5] has as its system Bacillus subtilis ATCC 23857.
Experiment [6] relates to Pseudomonas aeruginosa ATCC 9027.
Experiment [7] deals with Staphylococcus aureus ATCC 6538.
For experiment [8], the system named is Klebsiella pneumoniae ATCC 700603.
Experiment [9] deals with Staphylococcus aureus ATCC 25923.
For experiment [10], the system named is Staphylococcus epidermidis ATCC 12228.
For experiment [11], the system named is Micrococcus luteus ATCC 9341.
Experiment [12] relates to Salmonella enterica subsp. enterica serovar Typhimurium C77-31.
In experiment [13] the test system is Staphylococcus aureus ATCC 29213.

Values after ≈ are worked out from the molar mass of the structure shown.

`CC[C@H](C)[C@H](NC(=O)[C@H](CC(C)C)NC(=O)[C@@H](N)Cc1ccccc1)C(=O)N[C@H](C(=O)N[C@@H](CCCN=C(N)N)C(=O)N[C@@H](CCCN=C(N)N)C(=O)N1CCC[C@H]1C(=O)N[C@H](C(=O)N[C@H](C(=O)N[C@@H](CC(C)C)C(=O)NCC(=O)N[C@@H](CC(C)C)C(=O)N[C@@H](CC(C)C)C(N)=O)C(C)C)[C@@H](C)CC)[C@@H](C)CC` [FLIIRRPIVLGLL]: the MIC in experiment [1] is 8.21 µM (≈ 12.5 µg/mL); in experiment [2] it was 19.7 µM (≈ 30 µg/mL); in [3] it was 6.57 µM (≈ 9.99 µg/mL).

For the compound `CC[C@H](C)[C@@H]1NC(=O)[C@@H]2CCCN2C(=O)[C@@H](NC(=O)[C@H](Cc2ccccc2)NC(=O)[C@H](CC(C)C)NC(=O)[C@@H](NC(=O)[C@@H]2CCCN2C(=O)[C@@H](NC(=O)[C@@H](NC(=O)[C@H](CCCCN)NC(=O)[C@H](Cc2ccccc2)NC(=O)[C@H](C)NC(=O)[C@@H](NC(=O)[C@H](CCCCN)NC(=O)[C@H](CC(C)C)NC(=O)[C@H](CC(C)C)NC(=O)[C@@H](NC(=O)[C@H](CO)NC(=O)[C@H](CC(C)C)NC(=O)[C@@H](N)Cc2ccccc2)[C@@H](C)O)C(C)C)C(C)C)C(C)C)[C@@H](C)O)CSSC[C@@H](C(N)=O)NC(=O)[C@H](CCCCN)NC(=O)[C@H](CCCCN)NC(=O)[C@H]([C@@H](C)O)NC1=O` [FLSTLLKVAFKVVPTLFCPITKKC], the MIC worked out at 1.74 µM (≈ 4.69 µg/mL) in experiment [4]; 1.74 µM (≈ 4.69 µg/mL) in experiment [1]; 6.95 µM (≈ 18.7 µg/mL) in experiment [2]; 3.48 µM (≈ 9.37 µg/mL) with Shigella dysenteriae; 0.434 µM (≈ 1.17 µg/mL) in [3].

Consider `CC[C@H](C)[C@H](NC(=O)CN)C(=O)N[C@H](C(=O)N[C@@H](C)C(=O)NCC(=O)N[C@H](C(=O)N[C@H](C(=O)N[C@H](C(=O)N[C@@H](CCCCN)C(=O)N[C@H](C(=O)N[C@@H](CCCCN)C(=O)N[C@@H](C)C(N)=O)[C@@H](C)CC)[C@@H](C)CC)[C@@H](C)CC)[C@@H](C)CC)[C@@H](C)CC` [GIIAGIIIKIKA], for which the MIC is no less than 128 µM in experiment [5] and greater than 128 µM in experiment [2].

For `CC[C@H](C)[C@H](NC(=O)[C@H](CCCCN)NC(=O)[C@H](CCCCN)NC(=O)[C@@H](NC(=O)[C@@H](NC(=O)[C@H](CCCCN)NC(=O)[C@H](CCCCN)NC(=O)[C@@H](NC(=O)[C@@H](NC(=O)[C@H](CCCCN)NC(=O)[C@H](CCCCN)NC(=O)[C@@H](NC(=O)[C@@H](NC(=O)CN)[C@@H](C)CC)C(C)C)[C@@H](C)CC)C(C)C)[C@@H](C)CC)C(C)C)C(N)=O` [GIVKKIVKKIVKKI], the MIC in [5] stood at 1.7 µM (≈ 2.71 µg/mL); in experiment [2], 22 µM (≈ 35 µg/mL); in [6] it was 21 µM (≈ 33.5 µg/mL); in [7], 128 µM (≈ 204 µg/mL).

`CC[C@H](C)[C@H](NC(=O)[C@H](CC(C)C)NC(=O)[C@H](Cc1cnc[nH]1)NC(=O)CNC(=O)[C@H](CC(C)C)NC(=O)[C@@H](NC(=O)[C@H](CCCCN)NC(=O)[C@H](CO)NC(=O)[C@H](Cc1c[nH]c2ccccc12)NC(=O)[C@H](CCSC)NC(=O)CN)[C@@H](C)CC)C(N)=O` [GMWSKILGHLI]: the MIC was determined as 3.5 µM (≈ 4.39 µg/mL) against Bacillus subtilis 168, 7 µM (≈ 8.78 µg/mL) with Escherichia coli B, 100 µM (≈ 125 µg/mL) in the experiment on Pseudomonas aeruginosa and 15.5 µM (≈ 19.4 µg/mL) with Staphylococcus aureus.

As to `CC[C@H](C)[C@H](NC(=O)[C@H](CCCCN)NC(=O)[C@H](CCCCN)NC(=O)[C@H](C)NC(=O)[C@@H](NC(=O)[C@H](C)NC(=O)[C@H](CC(C)C)NC(=O)[C@H](CC(C)C)NC(=O)[C@H](C)NC(=O)[C@H](CCCCN)NC(=O)[C@H](CC(C)C)NC(=O)[C@H](CC(N)=O)NC(=O)CN)C(C)C)C(=O)N[C@@H](CC(C)C)C(N)=O` [GNLKALLAVAKKIL], the MIC in experiment [5] was found to be 4 µM (≈ 5.8 µg/mL); in the experiment with Escherichia coli, 8 µM (≈ 11.6 µg/mL); in experiment [8], 16 µM (≈ 23.2 µg/mL); in experiment [9], 32 µM (≈ 46.4 µg/mL).

`CC[C@H](C)[C@H](N)C(=O)N[C@@H](CC(C)C)C(=O)NCC(=O)N[C@H](C(=O)N[C@H](C(=O)N[C@@H](CC(C)C)C(=O)NCC(=O)N[C@@H](CC(C)C)C(=O)N[C@@H](CC(C)C)C(=O)N[C@@H](CCCCN)C(=O)N[C@@H](C)C(=O)N[C@@H](CC(C)C)C(N)=O)[C@@H](C)CC)[C@@H](C)O` [ILGTILGLLKAL]: the MIC in [5] stood at 8 µM (≈ 9.79 µg/mL); in [2], 64 µM (≈ 78.3 µg/mL); in experiment [9] it was 16 µM (≈ 19.6 µg/mL); in experiment [10], 16 µM (≈ 19.6 µg/mL).

For the compound `CC[C@H](C)[C@H](N)C(=O)N[C@@H](CC(C)C)C(=O)N1CCC[C@H]1C(=O)N[C@@H](Cc1cnc[nH]1)C(=O)N[C@@H](CCCCN)C(=O)N[C@@H](Cc1cnc[nH]1)C(=O)N1CCC[C@H]1C(=O)N[C@@H](Cc1cnc[nH]1)C(=O)N[C@@H](Cc1cnc[nH]1)C(=O)N1CCC[C@H]1C(=O)N[C@@H](Cc1cnc[nH]1)C(=O)N[C@@H](CCCN=C(N)N)C(=O)N[C@@H](CCCN=C(N)N)C(N)=O` [ILPHKHPHHPHRR], the MIC in [11] was no less than 100 µM.

In the case of `CSCC[C@@H]1NC(=O)[C@H](CC(C)C)NC(=O)[C@H](C)NC(=O)[C@H](CCCN=C(N)N)NC(=O)[C@H](Cc2ccccc2)NC(=O)[C@H](CC(C)C)NC(=O)CNC(=O)[C@H](CCCCN)NC(=O)[C@@H](NC(=O)[C@H](CCCN=C(N)N)NC(=O)[C@@H]2CCCN2C(=O)[C@@H](NC(=O)[C@H](CO)NC(=O)[C@H](Cc2ccc(O)cc2)NC(=O)[C@H](C)NC(=O)[C@@H](N)CCCCN)[C@@H](C)O)CSSC[C@@H](C(=O)N[C@@H](Cc2c[nH]c3ccccc23)C(=O)N[C@@H](CC(C)C)C(N)=O)NC1=O` [KAYSTPRCKGLFRALMCWL], the MIC in the experiment on Bacillus cereus stood at 22.3 µM (≈ 49.9 µg/mL); in experiment [1] it was 22.3 µM (≈ 49.9 µg/mL); in [2], 5.57 µM (≈ 12.5 µg/mL); against Pseudomonas aeruginosa it was 22.3 µM (≈ 49.9 µg/mL); against Shigella dysenteriae it was 2.78 µM (≈ 6.24 µg/mL); in [3], 5.57 µM (≈ 12.5 µg/mL).

For `CC[C@H](C)[C@H](NC(=O)[C@H](CC(C)C)NC(=O)[C@H](Cc1cnc[nH]1)NC(=O)CNC(=O)[C@H](CC(C)C)NC(=O)[C@@H](NC(=O)[C@H](CCCCN)NC(=O)[C@H](CO)NC(=O)[C@H](Cc1c[nH]c2ccccc12)NC(=O)[C@H](CCSC)NC(=O)[C@@H](N)CCCCN)[C@@H](C)CC)C(=O)N[C@@H](CCCN=C(N)N)C(N)=O` [KMWSKILGHLIR], the minimum inhibitory concentration (MIC) against Bacillus subtilis 168 was determined as 2.1 µM (≈ 3.11 µg/mL); in the experiment on Escherichia coli B, 6.3 µM (≈ 9.33 µg/mL); in the experiment on Pseudomonas aeruginosa, 73.3 µM (≈ 109 µg/mL); in the experiment with Staphylococcus aureus, 41.7 µM (≈ 61.8 µg/mL).

For `CC(C)C[C@H](NC(=O)[C@H](CCCN=C(N)N)NC(=O)[C@H](Cc1c[nH]c2ccccc12)NC(=O)[C@H](CCCN=C(N)N)NC(=O)[C@@H](NC(=O)[C@H](CCCCN)NC(=O)[C@H](Cc1c[nH]c2ccccc12)NC(=O)[C@H](CCCN=C(N)N)NC(=O)[C@H](CC(C)C)NC(=O)[C@H](Cc1c[nH]c2ccccc12)NC(=O)[C@@H](N)CCCN=C(N)N)[C@@H](C)O)C(=O)N[C@@H](CCCCN)C(N)=O` [RWLRWKTRWRLK], the minimal inhibitory concentration (MIC) in experiment [2] was found to be 2 µM (≈ 3.57 µg/mL); in the experiment with Escherichia coli UB1005, 4 µM (≈ 7.14 µg/mL); in [12], 8 µM (≈ 14.3 µg/mL); in [9], 16 µM (≈ 28.5 µg/mL); in [13] it was 4 µM (≈ 7.14 µg/mL); in experiment [10], 16 µM (≈ 28.5 µg/mL).

Compound `CC[C@H](C)[C@H](NC(=O)[C@H](CCCN=C(N)N)NC(=O)[C@H](CCCN=C(N)N)NC(=O)[C@@H]1CCCN1C(=O)[C@@H]1CCCN1C(=O)[C@H](CCCN=C(N)N)NC(=O)[C@H](CCCN=C(N)N)NC(=O)[C@H](CCCN=C(N)N)NC(=O)[C@@H]1CCCN1C(=O)[C@H](CC(C)C)NC(=O)[C@H](CCCN=C(N)N)NC(=O)[C@@H]1CCCN1C(=O)[C@H](CCCCN)NC(=O)[C@H](CCCCN)NC(=O)[C@H](CC(=O)O)NC(=O)[C@@H](N)C(C)C)C(=O)N[C@@H](Cc1ccc(O)cc1)C(=O)N[C@@H](CC(N)=O)C(=O)N[C@@H](CCCN=C(N)N)C(N)=O` [VDKKPRLPRRRPPRRIYNR] gave an MIC in the experiment on Escherichia coli JW0013 of 0.687 µM (≈ 1.7 µg/mL).

Compound `CC[C@H](C)[C@H](NC(=O)[C@H](CCCN=C(N)N)NC(=O)[C@H](CCCN=C(N)N)NC(=O)[C@@H]1CCCN1C(=O)[C@@H]1CCCN1C(=O)[C@H](CCCN=C(N)N)NC(=O)[C@H](CCCN=C(N)N)NC(=O)[C@H](CCCN=C(N)N)NC(=O)[C@@H]1CCCN1C(=O)[C@H](CCCCN)NC(=O)[C@H](Cc1ccc(O)cc1)NC(=O)[C@@H]1CCCN1C(=O)[C@H](CCCCN)NC(=O)[C@H](CCCCN)NC(=O)[C@H](CC(=O)O)NC(=O)[C@@H](N)C(C)C)C(=O)N[C@@H](Cc1ccc(O)cc1)C(=O)N[C@@H](CC(N)=O)C(=O)N[C@@H](CCCN=C(N)N)C(N)=O` [VDKKPYKPRRRPPRRIYNR] gave a minimal inhibitory concentration (MIC) in the experiment with Escherichia coli JW0013 of 0.481 µM (≈ 1.2 µg/mL).
